Source: patent publication US9125913B2, “Bcl-2-selective apoptosis-inducing agents for the treatment of cancer and immune diseases” (AbbVie Inc., priority 2008, dated 2015)

What was measured:
[1] = test system: FL5.12/Bcl-2 cells; assay: FL5.12/Bcl-2 cell viability assay; assay type: cell-based, murine; conditions: ratio of canine platelet EC50 to FL5.12/Bcl-2 EC50
Excerpt: FL5.12 is an IL-3 dependent prolymphocytic murine cell line that undergoes apoptosis upon IL-3 withdrawal as a result of the upregulation of pro-apoptotic Bcl-2 proteins such as Bim and Puma. Stable overexpression of anti-apoptotic Bcl-2 protein (FL5.12/Bcl-2) protects against apoptosis induced by IL-3 withdrawal by sequestration of Bim and Puma. […] The ability of compounds to kill FL5.12/Bcl-2 cells upon IL-3 withdrawal is a direct measure of the compounds' ability to inhibit anti-apoptotic Bcl-2 protein function.
Wild type FL5.12/Bcl-2 overexpressing stable transfectants were cultured in RPMI-1640 supplemented with 2 mM L-glutamine, 10% FBS, 1 mM sodium pyruvate, 2 mM HEPES, 1% penicillin/streptomycin (Invitrogen), 57 μM β-ME, and 10% WEHI-3B conditioned medium (source of IL-3) and maintained at 37° C. containing 5% CO2. 1×10^6 cells/ml were washed 1×PBS and resuspended in medium not supplemented with 10% WEHI-3B for 48 hrs prior to cytotoxicity assays. Cells were then treated for an additional 24 hrs in the presence of various concentrations of the indicated compounds. Cell viability was assessed by CellTitre Glo assay (Promega Corp.) according to the manufacturer's recommendations.

[2] = test system: GST-Bcl-2; assay: TR-FRET binding assay, Bcl-2; conditions: TR-FRET Ki values
Procedure, shortened: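 Compounds serially diluted in DMSO from 50 μM (2× starting concentration, 10% DMSO), mixed with GST-tagged protein, F-Bak peptide probe and Tb-labeled antibody, incubated 3 h at room temperature.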

SMILES	Selectivity Ratio (Platelet EC50/FL5.12/Bcl-2 EC50) [1]	Binding selectivity ratio (Bcl-XL Ki/Bcl-2 Ki) [2]
CN1CCN(CCCNc2ccc(S(=O)(=O)NC(=O)c3ccc(N4CCN(CC5=C(c6ccc(Cl)cc6)CC(C)(C)CC5)CC4)cc3Oc3cccc4[nH]ccc34)cc2[N+](=O)[O-])CC1 [Example 99, 4-(4-{[2-(4-chlorophenyl)-4,4-dimethylcyclohex-1-en-1-yl]methyl}piperazin-1-yl)-2-(1H-indol-4-yloxy)-N-[(4-{[3-(4-methylpiperazin-1-yl)propyl]amino}-3-nitrophenyl)sulfonyl]benzamide]	2440	138.3
O=C(NS(=O)(=O)c1ccc(NCC2CCOCC2)c([N+](=O)[O-])c1)c1ccc(N2CCN(Cc3cc(OCCN4CCCC4)ccc3-c3ccc(Cl)cc3)CC2)cc1Oc1ccccc1 [Example 138, 4-(4-{[4′-chloro-4-(2-pyrrolidin-1-ylethoxy)-1,1′-biphenyl-2-yl]methyl}piperazin-1-yl)-N-({3-nitro-4-[(tetrahydro-2H-pyran-4-ylmethyl)amino]phenyl}sulfonyl)-2-phenoxybenzamide]	616	574.9
CC1(C)CCC(CN2CCN(c3ccc(C(=O)NS(=O)(=O)c4ccc(NN5CCOCC5)c([N+](=O)[O-])c4)c(Oc4ccc5[nH]ccc5c4)c3)CC2)=C(c2ccc(Cl)cc2)C1 [EXAMPLE 260, 4-(4-{[2-(4-chlorophenyl)-4,4-dimethylcyclohex-1-en-1-yl]methyl}piperazin-1-yl)-2-(1H-indol-5-yloxy)-N-{[4-(morpholin-4-ylamino)-3-nitrophenyl]sulfonyl}benzamide]		>607.2
CN(C)CCCNc1ccc(S(=O)(=O)NC(=O)c2ccc(N3CCN(Cc4ccccc4-c4ccc(Cl)cc4)CC3)cc2Oc2ccc3cc[nH]c3c2)cc1[N+](=O)[O-] [Example 47, 4-{4-[(4′-chloro-1,1′-biphenyl-2-yl)methyl]piperazin-1-yl}-N-[(4-{[3-(dimethylamino)propyl]amino}-3-nitrophenyl)sulfonyl]-2-(1H-indol-6-yloxy)benzamide]		15.7
CC1(C)CCC(CN2CCN(c3ccc(C(=O)NS(=O)(=O)c4ccc(NC[C@H]5CC[C@@H](O)CC5)c([N+](=O)[O-])c4)c(Oc4ccc5[nH]ccc5c4)c3)CC2)=C(c2ccc(Cl)cc2)C1 [EXAMPLE 312, Cis-4-(4-{[2-(4-chlorophenyl)-4,4-dimethylcyclohex-1-en-1-yl]methyl}piperazin-1-yl)-N-[(4-{[(4-hydroxycyclohexyl)methyl]amino}-3-nitrophenyl)sulfonyl]-2-(1H-indol-5-yloxy)benzamide]		>1941.2
O=C(NS(=O)(=O)c1ccc(NCC2CCOCC2)c([N+](=O)[O-])c1)c1ccc(N2CCN(Cc3ccccc3-c3ccc(Cl)cc3)CC2)cc1Oc1ccccc1 [Example 1, 4-{4-[(4′-chloro-1,1′-biphenyl-2-yl)methyl]piperazin-1-yl}-N-({3-nitro-4-[(tetrahydro-2H-pyran-4-ylmethyl)amino]phenyl}sulfonyl)-2-phenoxybenzamide]		85.4
CN1CCC(Nc2ccc(S(=O)(=O)NC(=O)c3ccc(N4CCN(CC5=C(c6ccc(Cl)cc6)CC(C)(C)CC5)C(CO)C4)cc3Oc3ccc4[nH]ccc4c3)cc2[N+](=O)[O-])CC1 (stereo not shown) [EXAMPLE 218, 4-[4-{[2-(4-chlorophenyl)-4,4-dimethylcyclohex-1-en-1-yl]methyl}-3-(hydroxymethyl)piperazin-1-yl]-2-(1H-indol-5-yloxy)-N-({4-[(1-methylpiperidin-4-yl)amino]-3-nitrophenyl}sulfonyl)benzamide]		738.2
CN(C)CC(=O)N1CCO[C@H](COc2ncc(S(=O)(=O)NC(=O)c3ccc(N4CCN(CC5=C(c6ccc(Cl)cc6)CC(C)(C)CC5)CC4)cc3Oc3cccc4[nH]cnc34)cc2Cl)C1 [EXAMPLE 423, 2-(1H-benzimidazol-4-yloxy)-N-[(5-chloro-6-{[(2S)-4-(N,N-dimethylglycyl)morpholin-2-yl]methoxy}pyridin-3-yl)sulfonyl]-4-(4-{[2-(4-chlorophenyl)-4,4-dimethylcyclohex-1-en-1-yl]methyl}piperazin-1-yl)benzamide]		756.62
CCN1CCCC1CNC(=O)c1cc(S(=O)(=O)NC(=O)c2ccc(N3CCN(Cc4ccccc4-c4ccc(Cl)cc4)CC3)cc2Oc2ccccc2)ccc1OC (stereo not shown) [Example 33, 4-{4-[(4′-chloro-1,1′-biphenyl-2-yl)methyl]piperazin-1-yl}-N-{[3-({[(1-ethylpyrrolidin-2-yl)methyl]amino}carbonyl)-4-methoxyphenyl]sulfonyl}-2-phenoxybenzamide]		49.9
CC(c1ccccc1-c1ccc(Cl)cc1)N1CCN(c2ccc(C(=O)NS(=O)(=O)c3ccc(NC4CCN(C)CC4)c([N+](=O)[O-])c3)c(Oc3cccc4[nH]ccc34)c2)CC1 (stereo not shown) [EXAMPLE 206, 4-{4-[1-(4′-chloro-1,1′-biphenyl-2-yl)ethyl]piperazin-1-yl}-2-(1H-indol-4-yloxy)-N-({4-[(1-methylpiperidin-4-yl)amino]-3-nitrophenyl}sulfonyl)benzamide]		>7916.4
COCCCNc1ccc(S(=O)(=O)NC(=O)c2ccc(N3CCN(CC4=C(c5ccc(Cl)cc5)CC(C)(C)CC4)CC3)cc2Oc2ccc3[nH]ccc3c2)cc1[N+](=O)[O-] [EXAMPLE 317, 4-(4-{[2-(4-chlorophenyl)-4,4-dimethylcyclohex-1-en-1-yl]methyl}piperazin-1-yl)-2-(1H-indol-5-yloxy)-N-({4-[(3-methoxypropyl)amino]-3-nitrophenyl}sulfonyl)benzamide]		>235.9
COCCOCCSc1ccc(S(=O)(=O)NC(=O)c2ccc(N3CCN(CC4=C(c5ccc(Cl)cc5)CC(C)(C)CC4)CC3)cc2Oc2cccc3[nH]ccc23)cc1[N+](=O)[O-] [EXAMPLE 381, 4-(4-{[2-(4-chlorophenyl)-4,4-dimethylcyclohex-1-en-1-yl]methyl}piperazin-1-yl)-2-(1H-indol-4-yloxy)-N-[(4-{[2-(2-methoxyethoxy)ethyl]thio}-3-nitrophenyl)sulfonyl]benzamide]		448.3
CC1(C)CCC(CN2CCN(c3ccc(C(=O)NS(=O)(=O)c4ccc(NCC(F)(F)F)c([N+](=O)[O-])c4)c(Oc4ccc5[nH]ccc5c4)c3)CC2)=C(c2ccc(Cl)cc2)C1 [EXAMPLE 344, 4-(4-{[2-(4-chlorophenyl)-4,4-dimethylcyclohex-1-en-1-yl]methyl}piperazin-1-yl)-2-(1H-indol-5-yloxy)-N-({3-nitro-4-[(2,2,2-trifluoroethyl)amino]phenyl}sulfonyl)benzamide]		1576.9
CN(C)CCCOc1ccc(S(=O)(=O)NC(=O)c2ccc(N3CCN(CC4=C(c5ccc(Cl)cc5)CC(C)(C)CC4)CC3)cc2Oc2cccc3[nH]ccc23)cc1[N+](=O)[O-] [Example 106, 4-(4-{[2-(4-chlorophenyl)-4,4-dimethylcyclohex-1-en-1-yl]methyl}piperazin-1-yl)-N-({4-[3-(dimethylamino)propoxy]-3-nitrophenyl}sulfonyl)-2-(1H-indol-4-yloxy)benzamide]	1657	
